# Data as given in US6180650A, “Heterosubstituted pyridine derivatives as PDE 4 inhibitors” (Merck Frosst Canada & Co., priority 2000, dated 2001).
# Biological target: T1, GST-Met 248 PDE 4a (Homo sapiens, UniProt P27815)
# T1 construct: phosphodiesterase IVa (met-248); made in house; host or cells: baculovirus/Sf-9
# Experiment: SPA based PDE activity assay (IC50, purified GST fusion protein of human recombinant phosphodiesterase IVa (met-248), baculovirus/Sf-9)
# Assay type: biochemical
# Conditions: 100 nM cAMP, 30° C., pH 7.5, 10 min; approximated by non-linear regression of a ten point titration
# Experimental: SPA BASED PDE ACTIVITY ASSAY PROTOCOL Compounds which inhibit the hydrolysis of cAMP to AMP by the type-IV cAMP-specific phosphodiesterases were screened in 96-well plate format as follows: In a 96 well-plate at 30° C. was added the test compound (dissolved in 2 μl DMSO), […] of substrate buffer containing [2,8-^3 H] adenosine 3',5'-cyclic phosphate (cAMP, 100 nM to 50 μM), 10 mM MgCl2, 1 mM EDTA, 50 mM Tris, pH 7.5. The reaction was initiated by the addition of […] of human recombinant PDE-IV (the amount was controlled so that ~10% product was formed in 10 min.). The reaction was stopped after 10 min. by the addition of 1 mg of PDE-SPA beads (Amersham). The product AMP generated was quantified on a Microbeta 96-well plate counter. The signal in the absence of enzyme was defined as the background. 100% activity was defined as the signal detected in the presence of enzyme and DMSO with the background subtracted. Percentage of inhibition was calculated accordingly. IC50 value was approximated with a non-linear regression fit using the standard 4-parameter/multiple binding sites equation from a ten point titration. IC50 values shown in Table 7 were determined with 100 nM cAMP using the purified GST fusion protein of the human recombinant phosphodiesterase IVa (met-248) produced from a baculovirus/Sf-9 expression system.
# T1 sequence (P27815 248-886 limits assumed): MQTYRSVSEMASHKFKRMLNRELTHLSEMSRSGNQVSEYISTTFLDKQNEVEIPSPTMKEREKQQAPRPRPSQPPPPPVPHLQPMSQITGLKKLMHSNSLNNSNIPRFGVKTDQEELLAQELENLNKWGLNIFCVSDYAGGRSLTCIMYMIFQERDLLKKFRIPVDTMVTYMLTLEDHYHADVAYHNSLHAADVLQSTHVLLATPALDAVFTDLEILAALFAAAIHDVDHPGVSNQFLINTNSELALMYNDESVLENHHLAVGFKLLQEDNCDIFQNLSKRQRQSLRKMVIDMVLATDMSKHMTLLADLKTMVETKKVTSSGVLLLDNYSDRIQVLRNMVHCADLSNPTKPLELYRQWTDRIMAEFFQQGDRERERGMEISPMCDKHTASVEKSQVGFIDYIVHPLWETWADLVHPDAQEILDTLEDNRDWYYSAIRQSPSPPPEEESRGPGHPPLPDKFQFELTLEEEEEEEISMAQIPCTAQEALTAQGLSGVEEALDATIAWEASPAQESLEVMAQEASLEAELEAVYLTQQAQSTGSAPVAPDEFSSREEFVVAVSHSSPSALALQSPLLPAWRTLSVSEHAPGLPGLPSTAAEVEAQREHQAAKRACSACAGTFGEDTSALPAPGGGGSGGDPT
row,IC50,SMILES
1,2.85 nM,"[O-][n+]1ccc(CC(c2ccc(Oc3ccc(OC(F)(F)F)cc3)nc2)c2ccc(OC(F)F)c(OC(F)F)c2)cc1 (racemic) [Example 1, 4-{2-[3,4-Bis(difluoromethoxy)phenyl]-2-{6-[4-(trifluoromethoxy)phenoxy]3-pyridyl}ethyl}pyridine-N-oxide]"
2,1.43 nM,"[O-][n+]1ccc(CC(c2ccc(OCc3ccc(F)c(F)c3)nc2)c2ccc(OC(F)F)c(OC(F)F)c2)cc1 (racemic) [Example 16, 4-{2-[3,4-Bis(difluoromethoxy)phenyl]-2-[6-(3,4-difluorobenzyloxy)3-pyridyl]ethyl}pyridine-N-oxide]"
3,3.2 nM,"CC(C)(COc1ccc(C(Cc2cc[n+]([O-])cc2)c2ccc(OC(F)F)c(OC(F)F)c2)cn1)c1ccc(F)cc1 (racemic) [Example 23, 4-{2-[3,4-Bis(difluoromethoxy)phenyl]-2-{6-[2-methyl-2-(4-fluorophenyl)propyloxy]3-pyridyl}ethyl}pyridine-N-oxide]"
4,0.2 nM,"CC(C)(Cc1ccccc1)Oc1ccc(C(Cc2cc[n+]([O-])cc2)c2ccc(OC(F)F)c(OC(F)F)c2)cn1 (racemic) [Example 28, 4-{2-[3,4-Bis(difluoromethoxy)phenyl]-2-[6-(1,1-dimethyl-2-phenylethoxy)3-pyridyl]ethyl}pyridine-N-oxide]"
